Experimental data from patent US20080269179A1, “Use of Megestrol Acetate for the Treatment of Obstructive Pulmonary Diseases” (priority 2005, published 2008).

Assays:
[1] = Weight determinations in rat infarct model of chronic heart insufficiency; format: in vivo, Male Wistar-rats; conditions: day 224 after surgery
Protocol: (§1) An animal study was carried out, wherein a ligation of the left coronary artery was performed in 140 animals. For control 20 animals were operated without coronary ligature (sham-surgery). Two weeks after surgery, therapy was started. Therefore, the animals were treated with a diuretic (furosemide, in average 10 per kg in drinking water). After six weeks double-blind randomised therapy with either placebo, old or new megestrol acetate (from day 42 on using gavage, 100 mg per kg) or ACE-inhibitor (Ramipril®, 1 mg per kg per day) was started. The infarct groups consisted of 38 animal each for Ramipril® and placebo, 37 for MA-1 and 40 for MA-II, as well as 5 animals per sham group. During the therapy animals were weighed twice a week. On day 224 after surgery animals were sacrificed and the lung was analyzed regarding weight and histopathology.
Male Wistar-rats (Dimed GmbH, Schönwalde, Germany) were held in an environment controlled animal facility having a constant temperature of 23° C. in a 12 hour day-night-cycle.
(§2) The animals underwent surgical treatment at a weight of about 210-220 g. In order to produce a heart insufficiency the inventors performed the surgical treatment in accordance with an infarction model that was already used in several prior studies. The heart infarction is produced according to a slightly modified method described by Selye et al. [Selye H, Bajusz E, Grassos S, Mendel P. Simple techniques for the surgical occlusion of coronary vessels in the rat. Angiology 1960; 11: 398-407] by ligation of the LAD.
Each rat was anaesthetised by i.p. chloralhydrate (Merck, Darmstadt, Germany) and was subsequently incubated with a PE-catheter (1.2 mm diameter) and respirated using a Rodent-respirator V5K6 (NarcoBio Systems, Houston, Tex., USA). During the whole operation an ECG was performed as control. The thorax was opened, the heart was prepared and a ligature using Ethibond-suture material 7/0 (Ethicon GmbH Norderstedt, Germany) was made in position of the left coronary artery (LAD). Since the coronary arteries during this process can not be viewed by the naked eye, the orientation occurred anatomically based on the position of the heart and the visible coronary veins. The success of the infarction could be visually verified based on the occurring paleness, cyanosis and mobility distortion. Subsequently, the thorax was closed. […]
(§3) After the surgery, the animals were controlled and the weight was analysed twice a week during the whole study. […]
During the progression of both studies; the animals were weight-determined twice a week, starting from the date of surgery (laboratory balance model CS2000. Ohaus Corporation, Pine Brook, N.J., USA). The results were calculated corresponding to the post-surgical day of the respective animal. […]

[2] = tested on: lung of infarction surgery rats; experiment: Histopathology of the lungs in rat infarct model; format: in vivo, Male Wistar-rats
Protocol: as §1, §2
Each rat was anaesthetised by i.p. chloralhydrate (Merck, Darmstadt, Germany) and was subsequently incubated with a PE-catheter (1.2 mm diameter) and respirated using a Rodent-respirator V5K6 (NarcoBio Systems, Houston, Tex., USA). During the whole operation an ECG was performed as control. The thorax was opened, the heart was prepared and a ligature using Ethibond-suture material 7/0 (Ethicon GmbH Norderstedt, Germany) was made in position of the left coronary artery (LAD). Since the coronary arteries during this process can not be viewed by the naked eye, the orientation occurred anatomically based on the position of the heart and the visible coronary veins. The success of the infarction could be visually verified based on the occurring paleness, cyanosis and mobility distortion. Subsequently, the thorax was closed. The respiration was ended, once a stable ECG was reached. 20 rats were used as control animals and were surgically treated in the same manner as the infarction animals. No coronary ligature was introduced in these animals (sham-surgery).
After the surgery, the animals were controlled and the weight was analysed twice a week during the whole study. From day 14 on, the animals received furosemide, accompanied from day 42 on with either placebo, ACE-inhibitor, MA-I or MA-TI. On day […] post-surgery the animals were randomised and segregated into the respective groups. During therapy animals were weighted twice a week and on day 224 post-surgery animals were sacrificed to analyze organs.
MA-I, MA-II, ACE-inhibitor (Ramipril®) or control substances were administered to the animals via gavage. Depending on the time of surgery, the animals were gavaged stating from week six after the in infarction surgery once a day, whereby the amount of gavage was adjusted to the weight (100 mg MA-I/kg body weight per day, 1 ml solution contains 40 mg MA-I or MA-II or placebo, respectively).
In the 32st week post-surgery, the surviving animals were anaesthetised using chloralhydrate i.p. […] body weight (Sigma-Aldrich Chemie GmbH, Deisenhofen, Germany). Following the preparation of the subscapular brown fatty tissue, lapratomisation was performed and blood was drawn from the aorta abdominalis into EDTA-flushed 10 ml syringes (Roth, Karlsruhe, Germany) and added to pre-chilled 12 ml-tubes (Sarstedt, Nümbrecht, Germany). The following parts were removed completely or partially: lung, heart, liver, kidneys, renal glands, inguinal fatty tissue, epididymal fatty tissue, gastrocnemius, and brain. […]

[3] = tested on: rat myocardial infarct model; experiment: Cardiac function (echocardiography) in rat myocardial infarct model; format: in vivo, rats; conditions: 26 weeks treatment
Protocol: (§4) In another study, a similar rat myocardial infarct model as above was used in order to assess the therapeutic potential of MA in heart failure.
(§5) Methods: From day 14 after surgery (LAD occlusion), rats received frusemide. On day 42, rats were randomized to receive 26 weeks treatment with placebo (PL: n=38), ramipril (n=38, 1 mg/kg/d), the standard MA formulation (MA-I: n=37) or a new nanocristal MA formulation (MA-II: n=40, both 100 mg/kg/d) until sacrifice, Cardiac function was assessed using echocardiography. Additionally, body composition was analyzed boy NMR-scanning, and in a subgroup cardiac function was assessed by MRI scanning and invasive hemodynamics.

[4] = Body weight, body composition (NMR-scanning) and tibia length in rat myocardial infarct model; format: in vivo, rats; conditions: 26 weeks treatment
Protocol: as §4, §5

[5] = tested on: rat myocardial infarct model; experiment: Mortality / survival in rat myocardial infarct model of heart failure; format: in vivo, rats
Protocol: as §4, §5

[6] = tested on: lung of infarction surgery rats; experiment: Lung wet weight and amount of liquid in the lung in rat infarct model; format: in vivo, Male Wistar-rats
Protocol: as §1
The animals underwent surgical treatment at a weight of about 210-220 g. In order to produce a heart insufficiency the inventors performed the surgical treatment in accordance with an infarction model that was already used in several prior studies. […]
as §3

[7] = infarct animals, around the great respiratory tracts, day 224
[8] = infarct animals, great respiratory tracts, day 224

CCOC(=O)[C@H](CCc1ccccc1)N[C@@H](C)C(=O)N1[C@H](C(=O)O)C[C@@H]2CCC[C@@H]21 [Ramipril]
Weight of animals normalised to tibia length at the end of the study (mean) ([1]; infarct animals): 133.2 g/cm tibia | Weight of animals at the end of the study (mean) ([1]; infarct animals, gavage from day 42, MA 100 mg/kg/d, ramipril 1 mg/kg/d): 575.0 g | Weight of animals at the end of the study (mean) ([1]; sham-surgery animals): 567.2 g | Weight of animals normalised to tibia length at the end of the study (mean) ([1]; sham-surgery animals): 135.0 g/cm tibia | Inflammation: number of animals graded little [2, 7]: 1 | Inflammation: number of animals graded medium [2, 7]: 2 | Inflammation: number of animals graded strong [2, 7]: 2 | Inflammation: number of animals graded very strong [2, 7]: 18 | Mucus goblet cells: number of animals graded medium [2, 8]: 7 | Mucus goblet cells: number of animals graded strong [2, 8]: 6 | Mucus goblet cells: number of animals graded very strong [2, 8]: 10 | Emphysema: number of animals graded little ([2]; infarct animals, lung, day 224): 3 | Emphysema: number of animals graded medium ([2]; infarct animals, lung, day 224): 6 | Emphysema: number of animals graded none ([2]; infarct animals, lung, day 224): 8 | Emphysema: number of animals graded strong ([2]; infarct animals, lung, day 224): 4 | Emphysema: number of animals graded very strong ([2]; infarct animals, lung, day 224): 2 | Fibrosis: number of animals graded little ([2]; infarct animals, lung, day 224): 5 | Fibrosis: number of animals graded medium ([2]; infarct animals, lung, day 224): 4 | Fibrosis: number of animals graded none ([2]; infarct animals, lung, day 224): 12 | Fibrosis: number of animals graded strong ([2]; infarct animals, lung, day 224): 2 | CO/BW [3]: 178 ± 8^$ ml/min/kg | EF [3]: 40 ± 2% | Body weight, end of study ([4]; MA 100 mg/kg/d, ramipril 1 mg/kg/d, in g): 575 ± 8 | Fat/tibia ([4]; NMR-scanning): 45.3 ± 5.9 g/cm | Lean/tibia ([4]; NMR-scanning): 83.2 ± 2.5 g/cm | tibia length ([4]; retarded growth): 4.3 cm | Mortality ([5]; 26 weeks treatment from day 42, MA 100 mg/kg/d, ramipril 1 mg/kg/d): 13% | average weight of the liquid in the lung [6]: 2396 mg | average wet weight of the lung [6]: 3103 ± 281 mg

17-α-acetoxy-6-methylpregna-4,6diene-3,20-dione [Megestrol acetate]
inflammation and mucus goblet cells of the lung (histopathology, in words) ([2]; infarct rats, vs placebo and Ramipril groups): a reduction in the number of mucus goblet cells and a reduced inflammation of the lung | survival in infarction surgery rats ([5]; in comparison to placebo): significantly improved the survival
